The values that follow come from patent US20240360165A1, “INHIBITORS OF CYCLIN DEPENDENT KINASE 7 (CDK7)” (Syros Pharmaceuticals, Inc., priority 2016, published 2024).

Experiment [1] concerns the target CDK7/Cyclin H/MAT1 complex (Homo sapiens, UniProt P50613). The experiment in a line: CDK7 inhibition assay (Caliper/LabChip EZ Reader kinase assay). Conditions: Table 1; CDK7/Cyclin H/MAT1 6 nM, ATP 2 mM, 35 min at 27° C. Type of experiment: biochemical. The method, then:
(§1) Compounds of the invention were assayed for inhibition of CDK7, CDK9, CDK12, and CDK2 activity at Biortus Biosciences (Jiangyin, Jiangsu Province, P.R. of China) using kinase assays for each CDK developed with a Caliper/LabChip EZ Reader (Perkin Elmer, Waltham, MA).
(§2) Furthermore, the CDK9 inhibition assay used CDK9/Cyclin T1 complex (8 nM) and “5-FAM-CDK9tide” peptide substrate (2 μM, synthesized fluorophore-labeled peptide with the following sequence: 5-FAM-GSRTPMY-NH2 where 5-FAM is defined above and NH2 signifies a C-terminal amide) with 10 mM MgCl2 in the buffer composition listed above. […] Additionally, the CDK2 inhibition assay used CDK2/Cyclin E1 complex (0.5 nM) and “5-FAM-CDK7tide” ([…]) as defined above, with 2 mM MgCl2 in the buffer composition listed above.

For a further experiment, the target named is CDK9/Cyclin T1 complex (Homo sapiens, UniProt P50750). Kind of experiment: CDK9 inhibition assay (Caliper/LabChip EZ Reader kinase assay). The experiment is classed as biochemical. As to conditions: Table 1; CDK9/Cyclin T1 8 nM, ATP 2 mM, 15 min at 27° C. The method, then: as §1, §2
The target in experiment [2] is T1, CDK12 (aa686-1082)/Cyclin K complex (Homo sapiens, UniProt Q9NYV4).
T1 construct: CDK12 (aa686-1082)/Cyclin K complex
Kind of experiment: CDK12 inhibition assay (Caliper/LabChip EZ Reader kinase assay). Type of experiment: biochemical. Conditions: Table 1; CDK12 (aa686-1082)/Cyclin K 50 nM, ATP 2 mM, 3 hr at 27° C. The method, then:
as §1, §2

The target in another experiment is CDK2/Cyclin E1 complex (Homo sapiens, UniProt P24941). Kind of experiment: CDK2 inhibition assay (Caliper/LabChip EZ Reader kinase assay). Type of experiment: biochemical. Conditions: Table 1; CDK2/Cyclin E1 0.5 nM, ATP 2 mM, 35 min at 27° C. The method, then: as §1, §2
Another experiment relates to A673 cells. The experiment in a line: Inhibition of proliferation of A673 cells (CyQUANT, 72 hour). Type of experiment: cell-based, human. As to conditions: A673 cells, 72 hour, CyQUANT, read-out: Inhibition of Proliferation of A673 Cells (calculated IC50). The method, then:
A673 cells are a cell line derived from human […] Ewing's sarcoma. Representative compounds of the invention were tested at different concentrations (from […]; 0.5 log serial dilutions) for their ability to inhibit the proliferation of A673 cells. Known CDK inhibitors dinaciclib or N-((1S,3R)-3-((5-chloro-4-(1H-indol-3-yl)pyrimidin-2-yl)amino)cyclohexyl)-5-((E)-4-(dimethylamino)but-2-enamido)picolinamide and triptolide were used as positive controls. Cells were grown in Dulbecco's Modified Eagle's Medium, +10% FBS+1 mM Sodium Pyruvate. The cells were cultured at 37° C. in a humidified chamber in the presence of 5% CO2. Proliferation assays were conducted over a 72 hour time period. CyQUANT® (Life Technologies, Chicago, IL USA) was used to assess the anti-proliferative effects of the compounds following manufacturer's directions and utilizing the reagents supplied with the CyQUANT® kit.

Where two headings read alike, the source gives them in different places.

Chain of CDK7/Cyclin H/MAT1 complex (P50613 whole entry, species assumed): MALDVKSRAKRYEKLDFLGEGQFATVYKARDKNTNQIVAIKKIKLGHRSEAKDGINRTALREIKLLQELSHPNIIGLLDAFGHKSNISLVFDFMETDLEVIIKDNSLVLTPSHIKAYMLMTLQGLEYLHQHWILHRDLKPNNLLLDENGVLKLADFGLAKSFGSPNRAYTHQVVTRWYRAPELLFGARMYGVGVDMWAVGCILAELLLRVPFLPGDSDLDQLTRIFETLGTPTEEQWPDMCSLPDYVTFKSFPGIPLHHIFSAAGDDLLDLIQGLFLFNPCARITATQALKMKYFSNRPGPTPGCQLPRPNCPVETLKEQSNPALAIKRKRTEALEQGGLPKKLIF
Chain of CDK7/Cyclin H/MAT1 complex (P51946 whole entry partner, species assumed): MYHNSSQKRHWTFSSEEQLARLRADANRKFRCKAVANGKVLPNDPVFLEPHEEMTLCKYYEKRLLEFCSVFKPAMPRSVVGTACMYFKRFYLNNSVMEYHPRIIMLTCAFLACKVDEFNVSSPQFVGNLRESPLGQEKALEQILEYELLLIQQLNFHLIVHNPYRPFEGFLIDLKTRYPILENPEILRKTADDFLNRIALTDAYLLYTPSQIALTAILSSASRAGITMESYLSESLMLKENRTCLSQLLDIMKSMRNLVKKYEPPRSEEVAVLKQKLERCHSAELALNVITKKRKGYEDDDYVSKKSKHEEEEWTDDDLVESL
Chain of CDK7/Cyclin H/MAT1 complex (P51948 whole entry partner, species assumed): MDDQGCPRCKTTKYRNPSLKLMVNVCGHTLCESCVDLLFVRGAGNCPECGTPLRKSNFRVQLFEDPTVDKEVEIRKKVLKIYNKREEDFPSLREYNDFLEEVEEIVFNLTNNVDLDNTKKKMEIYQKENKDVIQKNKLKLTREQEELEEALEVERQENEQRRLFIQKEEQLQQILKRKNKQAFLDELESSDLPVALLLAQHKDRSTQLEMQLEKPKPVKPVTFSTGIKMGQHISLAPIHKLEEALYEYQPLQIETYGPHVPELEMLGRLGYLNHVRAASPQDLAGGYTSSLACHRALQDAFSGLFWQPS
T1 sequence (Q9NYV4 686-1082, species assumed): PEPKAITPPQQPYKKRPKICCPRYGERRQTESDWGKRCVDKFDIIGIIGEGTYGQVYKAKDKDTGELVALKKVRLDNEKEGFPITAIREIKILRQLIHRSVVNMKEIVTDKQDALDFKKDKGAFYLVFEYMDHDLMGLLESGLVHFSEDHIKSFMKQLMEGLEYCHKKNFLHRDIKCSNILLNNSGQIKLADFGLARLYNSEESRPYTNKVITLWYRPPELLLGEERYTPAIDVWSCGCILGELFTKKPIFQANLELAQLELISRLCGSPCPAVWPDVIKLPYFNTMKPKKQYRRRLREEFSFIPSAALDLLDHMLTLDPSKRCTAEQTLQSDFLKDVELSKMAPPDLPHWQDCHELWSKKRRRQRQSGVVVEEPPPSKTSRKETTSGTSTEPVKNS
T1 sequence (O75909 whole entry partner, species assumed, the tested form may be a part): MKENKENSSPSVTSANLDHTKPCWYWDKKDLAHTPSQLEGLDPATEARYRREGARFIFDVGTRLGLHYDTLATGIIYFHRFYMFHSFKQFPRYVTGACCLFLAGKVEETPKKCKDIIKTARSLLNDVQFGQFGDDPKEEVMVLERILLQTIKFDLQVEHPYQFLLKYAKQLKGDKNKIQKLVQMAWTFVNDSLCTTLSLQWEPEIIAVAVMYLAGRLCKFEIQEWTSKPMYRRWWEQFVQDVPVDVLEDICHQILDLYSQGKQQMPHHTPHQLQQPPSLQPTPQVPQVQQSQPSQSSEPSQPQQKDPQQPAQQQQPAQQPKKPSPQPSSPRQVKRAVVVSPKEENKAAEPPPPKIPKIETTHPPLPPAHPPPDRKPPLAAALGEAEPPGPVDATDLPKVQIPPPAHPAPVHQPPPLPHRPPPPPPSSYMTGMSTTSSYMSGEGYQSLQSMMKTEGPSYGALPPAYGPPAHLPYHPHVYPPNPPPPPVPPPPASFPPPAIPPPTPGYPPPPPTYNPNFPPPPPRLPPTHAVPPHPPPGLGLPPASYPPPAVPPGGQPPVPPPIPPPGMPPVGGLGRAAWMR
Chain of CDK9/Cyclin T1 complex (P50750 whole entry, species assumed, the tested form may be a part): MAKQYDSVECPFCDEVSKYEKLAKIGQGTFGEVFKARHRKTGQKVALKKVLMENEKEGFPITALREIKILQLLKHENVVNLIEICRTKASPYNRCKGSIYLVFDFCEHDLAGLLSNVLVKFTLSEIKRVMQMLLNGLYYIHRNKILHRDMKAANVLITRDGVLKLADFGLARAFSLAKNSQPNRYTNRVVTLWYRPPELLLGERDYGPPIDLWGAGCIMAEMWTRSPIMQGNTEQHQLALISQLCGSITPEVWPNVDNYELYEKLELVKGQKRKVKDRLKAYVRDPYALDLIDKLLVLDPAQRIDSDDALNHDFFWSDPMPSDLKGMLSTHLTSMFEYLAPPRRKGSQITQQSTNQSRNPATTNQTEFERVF
Chain of CDK9/Cyclin T1 complex (O60563 whole entry partner, species assumed, the tested form may be a part): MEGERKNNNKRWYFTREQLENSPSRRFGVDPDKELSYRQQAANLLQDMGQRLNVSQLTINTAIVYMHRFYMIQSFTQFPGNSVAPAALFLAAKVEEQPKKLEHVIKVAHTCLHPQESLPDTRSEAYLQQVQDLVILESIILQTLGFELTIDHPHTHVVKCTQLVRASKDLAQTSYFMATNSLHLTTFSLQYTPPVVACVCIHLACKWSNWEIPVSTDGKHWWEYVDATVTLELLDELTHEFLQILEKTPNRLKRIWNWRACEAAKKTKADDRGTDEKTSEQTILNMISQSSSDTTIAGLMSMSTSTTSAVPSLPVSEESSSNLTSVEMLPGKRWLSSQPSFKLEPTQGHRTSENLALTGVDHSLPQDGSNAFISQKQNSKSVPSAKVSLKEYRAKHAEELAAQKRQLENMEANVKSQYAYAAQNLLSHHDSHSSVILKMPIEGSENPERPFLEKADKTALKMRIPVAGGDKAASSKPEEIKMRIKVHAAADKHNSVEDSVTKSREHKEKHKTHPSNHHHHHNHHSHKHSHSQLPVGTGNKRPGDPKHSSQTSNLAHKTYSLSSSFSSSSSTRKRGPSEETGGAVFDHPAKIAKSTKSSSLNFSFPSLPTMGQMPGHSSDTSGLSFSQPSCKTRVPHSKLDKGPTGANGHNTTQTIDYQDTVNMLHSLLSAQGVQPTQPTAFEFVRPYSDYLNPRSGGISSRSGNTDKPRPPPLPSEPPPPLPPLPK

For `O=S1(=O)CCN(c2cccc3c(-c4nc(N[C@H]5CCCNC5)ncc4Cl)c[nH]c23)CC1` [Compound 196, 5-chloro-4-[7-(1,1-dioxo-1,4-thiazinan-4-yl)-1H-indol-3-yl]-N-[(3S)-3-piperidyl]pyrimidin-2-amine], the IC50 in experiment [1] is less than 20 nM; at CDK9/Cyclin T1 complex, 200 to 5000 nM; in experiment [2], 200 to 5000 nM; against CDK2/Cyclin E1 complex, 200 to 5000 nM; in the experiment on A673 cells (Homo sapiens, A673, 72 h), 20 to 200 nM.
`N#Cc1cc2[nH]cc(-c3nc(N[C@H]4CCCNC4)ncc3C(F)(F)F)c2cc1F` [Compound 197, 5-fluoro-3-[2-[[(3S)-3-piperidyl]amino]-5-(trifluoromethyl)pyrimidin-4-yl]-1H-indole-6-carbonitrile]: the IC50 was less than 20 nM in experiment [1]; 200 to 5000 nM at CDK9/Cyclin T1 complex; 200 to 5000 nM in experiment [2]; 200 to 5000 nM against CDK2/Cyclin E1 complex; less than 20 nM with A673 cells (Homo sapiens, A673, 72 h).
With `OC1CC=C(c2cccc3c(-c4nc(N[C@H]5CCCNC5)ncc4C(F)(F)F)c[nH]c23)CC1` (stereo partly drawn) [Compound 198], the IC50 in experiment [1] was less than 20 nM; against CDK9/Cyclin T1 complex, 200 to 5000 nM; in experiment [2], 200 to 5000 nM; against CDK2/Cyclin E1 complex it was 200 to 5000 nM; with A673 cells it was less than 20 nM.
With `CNS(=O)(=O)c1ccc2c(-c3nc(N[C@H]4CCCNC4)ncc3C(F)(F)F)c[nH]c2c1` [Compound 200, N-methyl-3-[2-[[(3S)-3-piperidyl]amino]-5-(trifluoromethyl)pyrimidin-4-yl]-1H-indole-6-sulfonamide], the IC50 in experiment [1] is less than 20 nM; at CDK9/Cyclin T1 complex it was 200 to 5000 nM; in experiment [2], 200 to 5000 nM; on CDK2/Cyclin E1 complex, 200 to 5000 nM; with A673 cells (Homo sapiens, A673, 72 h), 20 to 200 nM.
Take `C[C@H]1CNC[C@@H](Nc2ncc(Cl)c(-c3c[nH]c4ccccc34)n2)C1` [Compound 201, 5-chloro-4-(1H-indol-3-yl)-N-[(3S,5R)-5-methyl-3-piperidyl]pyrimidin-2-amine]: the IC50 in experiment [1] is less than 20 nM; against CDK9/Cyclin T1 complex it was 200 to 5000 nM; in experiment [2], 20 to 200 nM; against CDK2/Cyclin E1 complex, 200 to 5000 nM; in the experiment on A673 cells (Homo sapiens, A673, 72 h), less than 20 nM.
For `FC(F)(F)c1cnc(N[C@H]2CCCNC2)nc1-c1c[nH]c2cc(-c3ncc[nH]3)ccc12` [Compound 202, 4-[6-(1H-imidazol-2-yl)-1H-indol-3-yl]-N-[(3S)-3-piperidyl]-5-(trifluoromethyl) pyrimidin-2-amine], the IC50 in experiment [1] is less than 20 nM; on CDK9/Cyclin T1 complex it was 200 to 5000 nM; in experiment [2] it was more than 5000 nM; against CDK2/Cyclin E1 complex, 200 to 5000 nM; in the experiment on A673 cells (Homo sapiens, A673, 72 h) it was 20 to 200 nM.
Turning to `O[C@H]1CNC[C@@H](Nc2ncc(C(F)(F)F)c(-c3c[nH]c4ccccc34)n2)C1` [Compound 203, (3R,5S)-5-[[4-(1H-indol-3-yl)-5-(trifluoromethyl)pyrimidin-2-yl]amino]piperidin-3-ol], the IC50 is less than 20 nM in experiment [1]; 200 to 5000 nM against CDK9/Cyclin T1 complex; 200 to 5000 nM in experiment [2]; 200 to 5000 nM on CDK2/Cyclin E1 complex; less than 20 nM in the experiment on A673 cells (Homo sapiens, A673, 72 h).
On to `O=C(c1ccc2c(-c3nc(N[C@H]4CCCNC4)ncc3C(F)(F)F)c[nH]c2c1)N1CC[C@H](O)C1` [Compound 204, [(3S)-3-hydroxypyrrolidin-1-yl]-[3-[2-[[(3S)-3-piperidyl]amino]-5-(trifluoromethyl)pyrimidin-4-yl]-1H-indol-6-yl]methanone], for which the IC50 in experiment [1] is less than 20 nM; against CDK9/Cyclin T1 complex, more than 5000 nM; in experiment [2], 200 to 5000 nM; on CDK2/Cyclin E1 complex it was more than 5000 nM; in the experiment on A673 cells (Homo sapiens, A673, 72 h) it was 200 to 5000 nM.
With `O=C(c1ccc2c(-c3nc(N[C@H]4CCCNC4)ncc3C(F)(F)F)c[nH]c2c1)N1CC[C@@H](O)C1` [Compound 205, [(3R)-3-hydroxypyrrolidin-1-yl]-[3-[2-[[(3S)-3-piperidyl]amino]-5-(trifluoromethyl)pyrimidin-4-yl]-1H-indol-6-yl]methanone], the IC50 is less than 20 nM in experiment [1]; more than 5000 nM on CDK9/Cyclin T1 complex; 200 to 5000 nM in experiment [2]; more than 5000 nM at CDK2/Cyclin E1 complex; 200 to 5000 nM with A673 cells (Homo sapiens, A673, 72 h).
Consider `FCCc1cnc(N[C@H]2CCCNC2)nc1-c1c[nH]c2ccccc12` [Compound 206], for which the IC50 in experiment [1] was 20 to 200 nM; at CDK9/Cyclin T1 complex, 200 to 5000 nM; in experiment [2] it was 200 to 5000 nM; on CDK2/Cyclin E1 complex it was more than 5000 nM; in the experiment on A673 cells (Homo sapiens, A673, 72 h), 200 to 5000 nM.
As to `O[C@H]1CC[C@@H](c2cccc3c(-c4nc(N[C@H]5CCCNC5)ncc4C(F)(F)F)c[nH]c32)CC1` [Compound 207], the IC50 in experiment [1] was less than 20 nM; against CDK9/Cyclin T1 complex, 200 to 5000 nM; in experiment [2], 200 to 5000 nM; at CDK2/Cyclin E1 complex, 200 to 5000 nM; with A673 cells (Homo sapiens, A673, 72 h), less than 20 nM.
In the case of `CC(=O)c1cnc(N[C@H]2CCCNC2)nc1-c1c[nH]c2ccccc12` [Compound 208], the IC50 in experiment [1] is 20 to 200 nM; at CDK9/Cyclin T1 complex, more than 5000 nM; in experiment [2], 200 to 5000 nM; at CDK2/Cyclin E1 complex, more than 5000 nM; in the experiment with A673 cells (Homo sapiens, A673, 72 h), 20 to 200 nM.
Take `CC[C@@H]1CC[C@H](Nc2ncc(C(F)(F)F)c(-c3c[nH]c4ccccc34)n2)CN1` [Compound 211]: the IC50 in experiment [1] is 20 to 200 nM; against CDK9/Cyclin T1 complex it was 200 to 5000 nM; in experiment [2] it was 200 to 5000 nM; against CDK2/Cyclin E1 complex, 200 to 5000 nM; in the experiment with A673 cells (Homo sapiens, A673, 72 h), 20 to 200 nM.
For the compound `FC(F)(F)c1cnc(N[C@H]2CCC3(CC3)NC2)nc1-c1c[nH]c2ccccc12` [Compound 212], the IC50 in experiment [1] was less than 20 nM; against CDK9/Cyclin T1 complex it was 200 to 5000 nM; in experiment [2] it was 200 to 5000 nM; at CDK2/Cyclin E1 complex it was 200 to 5000 nM; in the experiment with A673 cells (Homo sapiens, A673, 72 h) it was less than 20 nM.
In the case of `CC(C)(O)Cn1cc(-c2ccc3c(-c4nc(N[C@H]5CCCNC5)ncc4C(F)(F)F)c[nH]c3c2)cn1` [Compound 214, 2-methyl-1-[4-[3-[2-[[(3S)-3-piperidyl]amino]-5-(trifluoromethyl)pyrimidin-4-yl]-1H-indol-6-yl]pyrazol-1-yl] propan-2-ol], the IC50 in experiment [1] is 20 to 200 nM; on CDK9/Cyclin T1 complex, 200 to 5000 nM; in experiment [2], 200 to 5000 nM; on CDK2/Cyclin E1 complex it was 200 to 5000 nM; with A673 cells (Homo sapiens, A673, 72 h), 20 to 200 nM.
For the compound `FC(F)(F)c1cnc(NC2CNCc3ccccc32)nc1-c1c[nH]c2ccccc12` (stereo not drawn) [Compound 215], the IC50 in experiment [1] is 20 to 200 nM; against CDK9/Cyclin T1 complex it was more than 5000 nM; in experiment [2] it was more than 5000 nM; at CDK2/Cyclin E1 complex it was more than 5000 nM; in the experiment with A673 cells (Homo sapiens, A673, 72 h) it was 200 to 5000 nM.
As for `FC(F)(F)c1cnc(NC2CNCc3ccccc32)nc1-c1c[nH]c2ccccc12` (stereo not drawn) [Compound 216], the IC50 was 200 to 5000 nM in experiment [1]; more than 5000 nM at CDK9/Cyclin T1 complex; more than 5000 nM in experiment [2]; 200 to 5000 nM at CDK2/Cyclin E1 complex; 200 to 5000 nM with A673 cells.
For the compound `CC[C@H]1CC[C@H](Nc2ncc(C(F)(F)F)c(-c3c[nH]c4ccccc34)n2)CN1` [Compound 217], the IC50 in experiment [1] was less than 20 nM; against CDK9/Cyclin T1 complex it was 200 to 5000 nM; in experiment [2], 200 to 5000 nM; on CDK2/Cyclin E1 complex it was 200 to 5000 nM; in the experiment with A673 cells (Homo sapiens, A673, 72 h), 20 to 200 nM.
For the compound `C=Cc1cnc(N[C@H]2CCCNC2)nc1-c1c[nH]c2ccccc12` [Compound 218], the IC50 in experiment [1] is less than 20 nM; against CDK9/Cyclin T1 complex, 200 to 5000 nM; in experiment [2] it was 200 to 5000 nM; on CDK2/Cyclin E1 complex, 200 to 5000 nM; in the experiment with A673 cells (Homo sapiens, A673, 72 h), 20 to 200 nM.
For the compound `CS(=O)(=O)Cc1ccc2c(-c3nc(N[C@H]4CCCNC4)ncc3C(F)(F)F)c[nH]c2c1` [Compound 219, 4-[6-(methylsulfonylmethyl)-1H-indol-3-yl]-N-[(3S)-3-piperidyl]-5-(trifluoromethyl) pyrimidin-2-amine], the IC50 in experiment [1] is less than 20 nM; against CDK9/Cyclin T1 complex, 200 to 5000 nM; in experiment [2], 200 to 5000 nM; against CDK2/Cyclin E1 complex, 200 to 5000 nM; with A673 cells (Homo sapiens, A673, 72 h), 20 to 200 nM.
As for `FC(F)(F)c1cnc(NC2C3CCC2NC3)nc1-c1c[nH]c2ccccc12` (stereo not drawn) [Compound 222, N-[4-(1H-indol-3-yl)-5-(trifluoromethyl)pyrimidin-2-yl]-3-azabicyclo [2.2.1]heptan-7-amine], the IC50 in experiment [1] was 20 to 200 nM; on CDK9/Cyclin T1 complex, 200 to 5000 nM; in experiment [2], 200 to 5000 nM; on CDK2/Cyclin E1 complex, 200 to 5000 nM; in the experiment on A673 cells (Homo sapiens, A673, 72 h), 20 to 200 nM.
